Measurements as given in ChEMBL document CHEMBL4507281, “Data for DCP probe BI-4394” (2021).

Key:
[1] = molecular target: Tyrosine-protein kinase ABL1 (Homo sapiens) (UniProt P00519); details: Compound concentration 100.0 nM
[2] = molecular target: Tyrosine-protein kinase receptor UFO (Homo sapiens) (UniProt P30530); details: Compound concentration 100.0 nM
[3] = molecular target: Protein-tyrosine kinase 6 (Homo sapiens) (UniProt Q13882); details: Compound concentration 100.0 nM
[4] = molecular target: Mitotic checkpoint serine/threonine-protein kinase BUB1 (Homo sapiens) (UniProt O43683); details: Compound concentration 100.0 nM
Mitotic checkpoint serine/threonine-protein kinase BUB1 (Homo sapiens), sequence (O43683 whole entry, looked up): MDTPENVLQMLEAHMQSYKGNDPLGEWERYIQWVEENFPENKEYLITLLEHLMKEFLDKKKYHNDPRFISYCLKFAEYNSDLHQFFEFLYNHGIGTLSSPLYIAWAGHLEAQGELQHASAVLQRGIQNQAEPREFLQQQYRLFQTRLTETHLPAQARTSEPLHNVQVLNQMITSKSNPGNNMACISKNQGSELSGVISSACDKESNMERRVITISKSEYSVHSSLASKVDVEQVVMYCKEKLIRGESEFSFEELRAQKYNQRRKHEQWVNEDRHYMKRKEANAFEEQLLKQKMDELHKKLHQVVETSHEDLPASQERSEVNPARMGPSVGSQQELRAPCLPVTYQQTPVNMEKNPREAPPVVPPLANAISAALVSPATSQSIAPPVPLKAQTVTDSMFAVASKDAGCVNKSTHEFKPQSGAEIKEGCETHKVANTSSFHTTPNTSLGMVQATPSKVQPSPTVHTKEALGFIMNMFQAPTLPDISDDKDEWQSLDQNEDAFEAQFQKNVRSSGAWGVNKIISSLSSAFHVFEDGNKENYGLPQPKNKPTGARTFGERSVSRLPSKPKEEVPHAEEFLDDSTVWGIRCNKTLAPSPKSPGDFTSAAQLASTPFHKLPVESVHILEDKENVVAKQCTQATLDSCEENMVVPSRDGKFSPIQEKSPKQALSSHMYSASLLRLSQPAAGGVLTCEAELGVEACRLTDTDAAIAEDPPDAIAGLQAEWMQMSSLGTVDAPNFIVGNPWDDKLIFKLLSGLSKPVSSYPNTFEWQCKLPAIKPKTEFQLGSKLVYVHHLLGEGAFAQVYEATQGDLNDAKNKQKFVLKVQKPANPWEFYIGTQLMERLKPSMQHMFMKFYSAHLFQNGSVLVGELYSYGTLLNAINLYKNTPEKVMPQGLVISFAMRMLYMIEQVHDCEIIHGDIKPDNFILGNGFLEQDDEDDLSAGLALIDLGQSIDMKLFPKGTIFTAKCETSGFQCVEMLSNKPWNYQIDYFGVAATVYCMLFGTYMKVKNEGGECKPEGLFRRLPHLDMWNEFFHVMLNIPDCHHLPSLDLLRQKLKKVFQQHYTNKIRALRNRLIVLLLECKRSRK

[5] = molecular target: Calcium/calmodulin-dependent protein kinase kinase 2 (Homo sapiens) (UniProt Q96RR4); details: Compound concentration 100.0 nM
[6] = molecular target: Cyclin-dependent kinase-like 2 (Homo sapiens) (UniProt Q92772); details: Compound concentration 100.0 nM
Cyclin-dependent kinase-like 2 (Homo sapiens), sequence (Q92772 whole entry): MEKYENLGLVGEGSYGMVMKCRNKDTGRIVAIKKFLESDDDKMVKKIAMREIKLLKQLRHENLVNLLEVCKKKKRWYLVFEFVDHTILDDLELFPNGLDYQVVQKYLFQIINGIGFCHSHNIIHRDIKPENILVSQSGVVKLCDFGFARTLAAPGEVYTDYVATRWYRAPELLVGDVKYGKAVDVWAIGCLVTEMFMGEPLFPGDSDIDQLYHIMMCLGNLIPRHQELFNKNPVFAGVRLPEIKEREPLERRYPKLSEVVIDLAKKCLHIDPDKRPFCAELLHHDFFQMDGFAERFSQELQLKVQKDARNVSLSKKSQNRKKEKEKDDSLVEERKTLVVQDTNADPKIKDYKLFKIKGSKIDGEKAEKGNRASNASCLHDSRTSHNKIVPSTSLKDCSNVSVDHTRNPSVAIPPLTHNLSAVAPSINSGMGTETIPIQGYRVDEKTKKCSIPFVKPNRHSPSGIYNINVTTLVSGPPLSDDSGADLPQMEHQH

[7] = molecular target: Cyclin-dependent kinase-like 3 (Homo sapiens) (UniProt Q8IVW4); details: Compound concentration 100.0 nM
Cyclin-dependent kinase-like 3 (Homo sapiens), sequence (Q8IVW4 whole entry, looked up): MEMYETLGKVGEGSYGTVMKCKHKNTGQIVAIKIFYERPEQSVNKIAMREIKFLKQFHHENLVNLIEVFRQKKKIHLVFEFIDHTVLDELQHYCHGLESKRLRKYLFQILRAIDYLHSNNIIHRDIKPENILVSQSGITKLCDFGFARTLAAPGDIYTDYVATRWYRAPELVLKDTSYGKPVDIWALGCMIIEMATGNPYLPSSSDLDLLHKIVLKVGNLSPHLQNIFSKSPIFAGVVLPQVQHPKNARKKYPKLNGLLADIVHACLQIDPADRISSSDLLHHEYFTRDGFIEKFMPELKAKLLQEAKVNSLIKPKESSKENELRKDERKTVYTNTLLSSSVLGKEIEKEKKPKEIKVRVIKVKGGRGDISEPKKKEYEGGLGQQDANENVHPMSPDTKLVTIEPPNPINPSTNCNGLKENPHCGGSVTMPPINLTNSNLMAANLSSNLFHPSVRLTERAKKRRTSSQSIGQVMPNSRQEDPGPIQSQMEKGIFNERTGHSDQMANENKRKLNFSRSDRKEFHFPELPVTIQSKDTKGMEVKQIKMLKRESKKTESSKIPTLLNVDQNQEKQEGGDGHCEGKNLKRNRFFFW

[8] = molecular target: Macrophage colony-stimulating factor 1 receptor (Homo sapiens) (UniProt P07333); details: Compound concentration 100.0 nM
[9] = molecular target: Casein kinase II subunit alpha' (Homo sapiens) (UniProt P19784); details: Compound concentration 100.0 nM
[10] = molecular target: Serine/threonine-protein kinase DCLK2 (Homo sapiens) (UniProt Q8N568); details: Compound concentration 100.0 nM
[11] = molecular target: Mitogen-activated protein kinase kinase kinase 12 (Homo sapiens) (UniProt Q12852); details: Compound concentration 100.0 nM
[12] = test system: Epidermal growth factor receptor (Homo sapiens), P00533 [L861Q]; details: Compound concentration 100.0 nM
[13] = molecular target: Ephrin type-B receptor 2 (Homo sapiens) (UniProt P29323); details: Compound concentration 100.0 nM
[14] = molecular target: Fibroblast growth factor receptor 4 (Homo sapiens) (UniProt P22455); details: Compound concentration 100.0 nM
[15] = test system: Receptor-type tyrosine-protein kinase FLT3 (Homo sapiens), P36888 [UNDEFINED MUTATION]; details: Compound concentration 100.0 nM
[16] = molecular target: Homeodomain-interacting protein kinase 1 (Homo sapiens) (UniProt Q86Z02); details: Compound concentration 100.0 nM
[17] = molecular target: Interleukin-1 receptor-associated kinase 3 (Homo sapiens) (UniProt Q9Y616); details: Compound concentration 100.0 nM
[18] = molecular target: Mitogen-activated protein kinase 10 (Homo sapiens) (UniProt P53779); details: Compound concentration 100.0 nM
[19] = test system: Mast/stem cell growth factor receptor Kit (Homo sapiens), P10721 [A829P]; details: Compound concentration 100.0 nM
[20] = molecular target: LIM domain kinase 1 (Homo sapiens) (UniProt P53667); details: Compound concentration 100.0 nM
[21] = molecular target: Mitogen-activated protein kinase kinase kinase 1 (Homo sapiens) (UniProt Q13233); details: Compound concentration 100.0 nM
[22] = molecular target: Mitogen-activated protein kinase kinase kinase kinase 3 (Homo sapiens) (UniProt Q8IVH8); details: Compound concentration 100.0 nM
[23] = molecular target: Serine/threonine-protein kinase MARK1 (Homo sapiens) (UniProt Q9P0L2); details: Compound concentration 100.0 nM
[24] = molecular target: Myosin light chain kinase (Homo sapiens) (UniProt Q32MK0); details: Compound concentration 100.0 nM
[25] = molecular target: Serine/threonine-protein kinase Nek7 (Homo sapiens) (UniProt Q8TDX7); details: Compound concentration 100.0 nM
[26] = molecular target: Mitogen-activated protein kinase kinase kinase 14 (Homo sapiens) (UniProt Q99558); details: Compound concentration 100.0 nM
[27] = molecular target: Serine/threonine-protein kinase PAK 6 (Homo sapiens) (UniProt Q9NQU5); details: Compound concentration 100.0 nM
[28] = molecular target: Cyclin-dependent kinase 15 (Homo sapiens) (UniProt Q96Q40); details: Compound concentration 100.0 nM
[29] = test system: Phosphatidylinositol 4,5-bisphosphate 3-kinase catalytic subunit alpha isoform (Homo sapiens), P42336 [E545K]; details: Compound concentration 100.0 nM
[30] = molecular target: Phosphatidylinositol 4,5-bisphosphate 3-kinase catalytic subunit beta isoform (Homo sapiens) (UniProt P42338); details: Compound concentration 100.0 nM
[31] = molecular target: Phosphatidylinositol 4,5-bisphosphate 3-kinase catalytic subunit gamma isoform (Homo sapiens) (UniProt P48736); details: Compound concentration 100.0 nM
Phosphatidylinositol 4,5-bisphosphate 3-kinase catalytic subunit gamma isoform (Homo sapiens), sequence (P48736 whole entry, looked up, canonical isoform): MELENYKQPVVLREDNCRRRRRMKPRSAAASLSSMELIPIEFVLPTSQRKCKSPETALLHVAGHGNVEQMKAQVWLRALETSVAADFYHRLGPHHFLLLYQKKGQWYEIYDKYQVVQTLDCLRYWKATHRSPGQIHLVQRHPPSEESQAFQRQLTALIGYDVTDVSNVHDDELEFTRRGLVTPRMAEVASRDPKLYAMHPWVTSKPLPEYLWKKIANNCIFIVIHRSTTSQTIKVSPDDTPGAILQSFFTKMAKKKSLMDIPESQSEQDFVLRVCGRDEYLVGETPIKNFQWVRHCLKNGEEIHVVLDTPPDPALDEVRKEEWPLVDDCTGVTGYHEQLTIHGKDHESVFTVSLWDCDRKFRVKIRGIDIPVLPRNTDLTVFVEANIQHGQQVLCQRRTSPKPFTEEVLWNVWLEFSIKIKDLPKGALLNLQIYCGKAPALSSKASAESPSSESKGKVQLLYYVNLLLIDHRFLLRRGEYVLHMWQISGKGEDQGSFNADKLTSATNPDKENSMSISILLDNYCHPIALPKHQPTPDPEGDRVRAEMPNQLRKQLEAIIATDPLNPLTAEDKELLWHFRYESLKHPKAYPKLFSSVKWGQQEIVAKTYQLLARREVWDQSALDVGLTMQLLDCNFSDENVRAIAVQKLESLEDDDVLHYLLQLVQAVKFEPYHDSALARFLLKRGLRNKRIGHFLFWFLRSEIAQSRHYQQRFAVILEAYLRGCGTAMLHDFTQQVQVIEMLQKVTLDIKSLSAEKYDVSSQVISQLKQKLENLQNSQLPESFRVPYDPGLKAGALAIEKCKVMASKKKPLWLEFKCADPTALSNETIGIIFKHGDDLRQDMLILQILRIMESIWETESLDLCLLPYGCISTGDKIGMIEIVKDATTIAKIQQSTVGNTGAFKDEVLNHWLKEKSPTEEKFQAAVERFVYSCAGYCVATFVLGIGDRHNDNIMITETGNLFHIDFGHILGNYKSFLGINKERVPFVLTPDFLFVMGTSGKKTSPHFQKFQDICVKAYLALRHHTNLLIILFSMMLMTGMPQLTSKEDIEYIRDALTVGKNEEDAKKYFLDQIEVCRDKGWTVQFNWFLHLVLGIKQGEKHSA

[32] = molecular target: Serine/threonine-protein kinase PLK1 (Homo sapiens) (UniProt P53350); details: Compound concentration 100.0 nM
[33] = molecular target: Protein kinase C eta type (Homo sapiens) (UniProt P24723); details: Compound concentration 100.0 nM
[34] = molecular target: Proto-oncogene tyrosine-protein kinase receptor Ret (Homo sapiens) (UniProt P07949); details: Compound concentration 100.0 nM
[35] = molecular target: Rho-associated protein kinase 1 (Homo sapiens) (UniProt Q13464); details: Compound concentration 100.0 nM
[36] = molecular target: Ribosomal protein S6 kinase alpha-6 (Homo sapiens) (UniProt Q9UK32); details: Compound concentration 100.0 nM
[37] = molecular target: Serine/threonine-protein kinase SIK2 (Homo sapiens) (UniProt Q9H0K1); details: Compound concentration 100.0 nM
Serine/threonine-protein kinase SIK2 (Homo sapiens), sequence (Q9H0K1 whole entry, looked up): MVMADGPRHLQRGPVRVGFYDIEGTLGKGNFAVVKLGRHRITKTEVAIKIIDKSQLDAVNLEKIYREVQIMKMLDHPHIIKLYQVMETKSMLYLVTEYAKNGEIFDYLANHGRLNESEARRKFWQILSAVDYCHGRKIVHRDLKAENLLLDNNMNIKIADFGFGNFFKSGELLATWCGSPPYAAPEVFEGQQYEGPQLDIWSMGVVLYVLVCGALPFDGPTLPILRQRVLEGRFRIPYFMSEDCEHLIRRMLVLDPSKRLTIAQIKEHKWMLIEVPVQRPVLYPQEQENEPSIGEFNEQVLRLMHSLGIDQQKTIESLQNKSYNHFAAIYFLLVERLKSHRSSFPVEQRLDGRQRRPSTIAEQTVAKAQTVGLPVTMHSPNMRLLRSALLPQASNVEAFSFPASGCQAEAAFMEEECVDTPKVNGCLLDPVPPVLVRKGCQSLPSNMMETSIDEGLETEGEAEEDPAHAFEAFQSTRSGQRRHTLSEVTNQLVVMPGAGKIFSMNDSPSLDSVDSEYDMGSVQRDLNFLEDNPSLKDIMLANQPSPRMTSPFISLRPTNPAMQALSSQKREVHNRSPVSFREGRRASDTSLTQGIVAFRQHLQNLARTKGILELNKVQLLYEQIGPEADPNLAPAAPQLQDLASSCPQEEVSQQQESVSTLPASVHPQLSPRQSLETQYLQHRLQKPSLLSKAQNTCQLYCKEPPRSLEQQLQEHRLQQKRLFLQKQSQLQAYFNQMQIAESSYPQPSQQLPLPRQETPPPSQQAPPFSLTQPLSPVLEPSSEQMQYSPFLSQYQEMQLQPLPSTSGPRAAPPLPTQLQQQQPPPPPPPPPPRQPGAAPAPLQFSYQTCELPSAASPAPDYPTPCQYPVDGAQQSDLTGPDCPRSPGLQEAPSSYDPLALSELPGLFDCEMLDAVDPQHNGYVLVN

[38] = molecular target: STE20-like serine/threonine-protein kinase (Homo sapiens) (UniProt Q9H2G2); details: Compound concentration 100.0 nM
[39] = molecular target: Tyrosine-protein kinase Tec (Homo sapiens) (UniProt P42680); details: Compound concentration 100.0 nM
Tyrosine-protein kinase Tec (Homo sapiens), sequence (P42680 whole entry): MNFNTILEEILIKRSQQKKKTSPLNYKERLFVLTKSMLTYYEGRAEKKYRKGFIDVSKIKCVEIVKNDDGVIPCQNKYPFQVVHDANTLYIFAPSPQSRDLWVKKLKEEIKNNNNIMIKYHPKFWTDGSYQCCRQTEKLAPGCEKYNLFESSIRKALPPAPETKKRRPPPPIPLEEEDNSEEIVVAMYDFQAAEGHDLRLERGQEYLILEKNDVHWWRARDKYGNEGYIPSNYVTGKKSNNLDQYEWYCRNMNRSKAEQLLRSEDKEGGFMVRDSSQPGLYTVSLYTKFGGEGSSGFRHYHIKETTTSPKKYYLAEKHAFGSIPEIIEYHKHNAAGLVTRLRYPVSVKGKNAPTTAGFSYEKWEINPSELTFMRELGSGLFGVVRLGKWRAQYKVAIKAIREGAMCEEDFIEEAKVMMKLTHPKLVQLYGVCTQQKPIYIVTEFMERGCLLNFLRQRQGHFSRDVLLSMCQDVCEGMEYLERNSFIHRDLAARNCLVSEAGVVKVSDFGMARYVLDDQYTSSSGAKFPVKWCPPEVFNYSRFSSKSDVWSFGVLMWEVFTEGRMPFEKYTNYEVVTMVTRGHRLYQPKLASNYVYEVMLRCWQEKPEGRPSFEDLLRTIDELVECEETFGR

[40] = molecular target: Vascular endothelial growth factor receptor 2 (Homo sapiens) (UniProt P35968); details: Compound concentration 100.0 nM
[41] = molecular target: Serine/threonine-protein kinase WNK3 (Homo sapiens) (UniProt Q9BYP7); details: Compound concentration 100.0 nM
[42] = molecular target: Serine/threonine-protein kinase 32A (Homo sapiens) (UniProt Q8WU08); details: Compound concentration 100.0 nM
[43] = molecular target: 5-hydroxytryptamine receptor 6 (Homo sapiens) (UniProt P50406); details: Compound concentration 10.0 uM
[44] = molecular target: Sodium-dependent serotonin transporter (Homo sapiens) (UniProt P31645); details: Compound concentration 10.0 uM
[45] = molecular target: Alpha-2B adrenergic receptor (Homo sapiens) (UniProt P18089); details: Compound concentration 10.0 uM

Work on `CCOC(=O)c1cc2cc(-c3cc(C(=O)NCc4ccc(C(=O)O)cc4)nn3C)ccc2[nH]1` [BI 4394] yielded a residual activity [1] of 94%, a residual activity [2] of 89% and a residual activity [3] of 98%. For the same compound, the residual activity [4] was 100%, the residual activity [5] was 95% and the residual activity [6] was 88%. It also gave a residual activity [7] of 0%, a residual activity [8] of 100% and a residual activity [9] of 87%. The residual activity [10] was 100%, the residual activity [11] was 79% and the residual activity [12] was 100%. It also gave a residual activity [13] of 100%, a residual activity [14] of 68% and a residual activity [15] of 98%. For the same compound, the residual activity [16] was 91%, the residual activity [17] was 100% and the residual activity [18] was 100%. It also gave a residual activity [19] of 95%, a residual activity [20] of 100% and a residual activity [21] of 90%. For the same compound, the residual activity [22] was 89%, the residual activity [23] was 76% and the residual activity [24] was 89%. For the same compound, the residual activity [25] was 100%, the residual activity [26] was 58% and the residual activity [27] was 99%. For the same compound, the residual activity [28] was 93%, the residual activity [29] was 100% and the residual activity [30] was 88%. The residual activity [31] was 90%, the residual activity [32] was 90% and the residual activity [33] was 87%. The residual activity [34] was 87%, the residual activity [35] was 78% and the residual activity [36] was 93%. For the same compound, the residual activity [37] was 100%, the residual activity [38] was 98% and the residual activity [39] was 99%. For the same compound, the residual activity [40] was 81%, the residual activity [41] was 96% and the residual activity [42] was 75%. It also gave an inhibition [43] of 4.01%, an inhibition [44] of -0.14% and an inhibition [45] of 16.4%.
`Cn1nc(C(=O)NCc2ccc(C(=O)O)cc2)cc1-c1ccc2[nH]ccc2c1` [BI 4395] showed a residual activity [1] of 62%, a residual activity [2] of 89% and a residual activity [3] of 89%. For the same compound, the residual activity [4] was 83%, the residual activity [5] was 80% and the residual activity [6] was 78%. For the same compound, the residual activity [7] was 100%, the residual activity [8] was 100% and the residual activity [9] was 100%. For the same compound, the residual activity [10] was 92%, the residual activity [11] was 100% and the residual activity [12] was 69%. For the same compound, the residual activity [13] was 100%, the residual activity [14] was 100% and the residual activity [15] was 91%. It also gave a residual activity [16] of 85%, a residual activity [17] of 83% and a residual activity [18] of 76%. The residual activity [19] was 72%, the residual activity [20] was 100% and the residual activity [21] was 65%. The residual activity [22] was 97%, the residual activity [23] was 100% and the residual activity [24] was 100%. The residual activity [25] was 98%, the residual activity [26] was 85% and the residual activity [27] was 96%. For the same compound, the residual activity [28] was 95%, the residual activity [29] was 87% and the residual activity [30] was 82%. It also gave a residual activity [31] of 64%, a residual activity [32] of 95% and a residual activity [33] of 84%. The residual activity [34] was 83%, the residual activity [35] was 93% and the residual activity [36] was 85%. For the same compound, the residual activity [37] was 90%, the residual activity [38] was 65% and the residual activity [39] was 89%. It also gave a residual activity [40] of 85%, a residual activity [41] of 67% and a residual activity [42] of 92%. For the same compound, the inhibition [43] was 8.85%, the inhibition [44] was 5.3% and the inhibition [45] was 6%.
